Test results published in patent US20060122222A1, “Heterocycle substituted carboxylic acids” (The Institutes for Pharmaceutical Discovery, LLC, priority 2004, published 2006).

| melting point | Structure (SMILES) |
| --- | --- |
| 148 °C (dec.) | O=C(O)[C@@H]1CSC(c2ccc(-c3ccc(-c4c(Cc5ccccc5)oc5ccccc45)cc3)cc2)N1 (mixture of isomers) [Example 38, (2RS, 4R)-2-[4′-(2-Benzylbenzofuran-3-yl)biphen-4-yl]thiazolidine-4-carboxylic acid] |
| 135 to 137 °C (dec.) | O=C(O)[C@@H]1CSC(c2ccc(-c3ccc(-n4ccc5ccccc54)cc3)cc2)N1 (stereo in doubt) [Example 27, 2-(4′-Indol-1-yl-biphen-4-yl)thiazolidine-4-carboxylic acid] |
| 220 to 223 °C | O=C(O)C(=O)Nc1cc(-c2ccc(-c3cccc4c3oc3ccccc34)cc2)cn(Cc2ccccc2)c1=O [Example 4, N-[1-Benzyl-5-(4-dibenzofuran-4-yl-phenyl)-2-oxo-1,2-dihydro-pyridin-3-yl]-oxalamic acid] |
| 289 to 292 °C | CCc1ccc(-c2sc(NC(=O)c3ccc(S(=O)(=O)N4CCCC4C(=O)O)cc3)nc2-c2ccc(Cl)cc2)cc1 (stereo not drawn) [Example 5, 1-{4-[4-(4-Chloro-phenyl)-5-(4-ethyl-phenyl)-thiazol-2-ylcarbamoyl]-benzenesulfonyl}-pyrrolidine-2-carboxylic acid] |
| 205 °C (dec.) | O=C(O)CCNc1cc(-c2ccc(-c3cccc4c3oc3ccccc34)cc2)nc(Cc2ccccc2)n1 [Example 45, 3-[2-Benzyl-6-(4-dibenzofuran-4-yl-phenyl)-pyrimidin-4-ylamino]-propionic acid] |
| 210 °C (dec.) | O=C(O)CCNc1cc(-c2ccc(-c3cccc4c3oc3ccccc34)cc2)nc(-c2ccccc2)n1 [Example 46, 3-[2-phenyl-6-(4-dibenzofuran-4-yl-phenyl)-pyrimidin-4-ylamino]-propionic acid] |
